Measurements as given in publication PMC11409218, “Metal(triphenylphosphine)-atovaquone Complexes: Synthesis, Antimalarial Activity, and Suppression of Heme Detoxification” (Inorganic Chemistry, 2024).

Tested on: β-hematin crystal formation
Assay: β-Hematin crystal formation by FTIR spectroscopy
Assay type: biochemical
Settings: acid-buffered medium pH 5; 1:3 hematin/compound ratio
Procedure: The ability of these compounds to inhibit the formation of β-hematin crystals was investigated by IR spectroscopy (Figure 2f). Of note, β-hematin crystal formation was assayed in an acid-buffered medium, while hemin titration was assayed at neutral pH. […]. For both ATV and complexes 1–3, there may have been overlapping between a decrease in the (C = O) band of heme species and a (C = O) band of quinone. However, there was no danger of overlaps in the (C–O) band of heme species at 1210 cm^–1, since these species are absent from the drugs.
The conversion of hematin into β-hematin crystals was determined by FTIR spectroscopy as described previously.[52] In a microtube, 20 mg hemin and three equivalents of the compounds were dissolved in 3 mL 0.1 M NaOH solution and stirred for 30 min at 60 °C. Then, 0.3 mL 0.1 M HCl and 1.7 mL sodium acetate buffer (10 M, pH 5) were added at the same temperature. […] After incubation for 120 min, the reaction mixture was cooled on ice for 10 min and then centrifuged and washed with water to remove salts. Resulting crystals were dried and IR spectra were obtained using ATR mode.[66]−[68]

## O=C1C(O)=C([C@H]2CC[C@H](c3ccc(Cl)cc3)CC2)C(=O)c2ccccc21 [ATV, atovaquone]
  inhibition of β-hematin crystal formation (IR bands 1663 and 1210 cm^–1): unable to inhibit β-hematin crystal formation
